Results on four compounds are retold here after ChEMBL document CHEMBL1141996, “cis-6-oxo-hexahydro-2-oxa-1,4-diazapentalene and cis-6-oxo-hexahydropyrrolo[3,2-c]pyrazole based scaffolds: design rationale, synthesis and cysteinyl proteinase inhibition” (Bioorg Med Chem Lett, 2005).

One assay addresses Cysteine proteinase B (Leishmania mexicana, UniProt P36400). The assay is described as follows: Binding affinity against Leishmania mexicana cysteine peptidase B (CPB).
A further assay addresses Cruzipain (Trypanosoma cruzi, UniProt P25779). Description: Binding affinity against cruzaine.
Assay [1] can be described thus: Binding affinity against cathepsin L.
For a further assay, the target named is T1, Cathepsin K (Homo sapiens, UniProt P43235).
T1 sequence (P43235 whole entry): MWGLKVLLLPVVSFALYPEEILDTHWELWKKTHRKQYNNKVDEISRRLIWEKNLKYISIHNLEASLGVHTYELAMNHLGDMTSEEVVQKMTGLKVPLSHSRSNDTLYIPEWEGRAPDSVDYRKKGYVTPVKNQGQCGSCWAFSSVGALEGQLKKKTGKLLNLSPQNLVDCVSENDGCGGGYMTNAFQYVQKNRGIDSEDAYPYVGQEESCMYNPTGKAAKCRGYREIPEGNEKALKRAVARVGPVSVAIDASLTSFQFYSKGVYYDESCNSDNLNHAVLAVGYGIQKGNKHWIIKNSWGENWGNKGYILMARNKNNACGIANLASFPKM
Description: Binding affinity against human cathepsin K.

Assay [2] in a line: Binding affinity against cathepsin B.
A further assay concerns the target Cathepsin S (Homo sapiens, UniProt P25774). Description: Binding affinity against cathepsin S.

Sequence of Cruzipain (P25779 whole entry): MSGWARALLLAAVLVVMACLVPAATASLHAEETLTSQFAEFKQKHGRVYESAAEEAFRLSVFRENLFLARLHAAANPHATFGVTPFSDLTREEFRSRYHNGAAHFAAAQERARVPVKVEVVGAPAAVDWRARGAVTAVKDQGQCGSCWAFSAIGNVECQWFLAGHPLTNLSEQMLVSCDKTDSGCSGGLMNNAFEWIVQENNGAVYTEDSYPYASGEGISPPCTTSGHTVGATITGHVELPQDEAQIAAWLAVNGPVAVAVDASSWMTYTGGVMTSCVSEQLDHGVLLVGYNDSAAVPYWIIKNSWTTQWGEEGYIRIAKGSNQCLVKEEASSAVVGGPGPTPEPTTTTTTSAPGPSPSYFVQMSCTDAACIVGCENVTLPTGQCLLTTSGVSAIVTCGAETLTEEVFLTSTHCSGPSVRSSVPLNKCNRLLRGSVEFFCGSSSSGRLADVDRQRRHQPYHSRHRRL
Sequence of Cysteine proteinase B (P36400 whole entry): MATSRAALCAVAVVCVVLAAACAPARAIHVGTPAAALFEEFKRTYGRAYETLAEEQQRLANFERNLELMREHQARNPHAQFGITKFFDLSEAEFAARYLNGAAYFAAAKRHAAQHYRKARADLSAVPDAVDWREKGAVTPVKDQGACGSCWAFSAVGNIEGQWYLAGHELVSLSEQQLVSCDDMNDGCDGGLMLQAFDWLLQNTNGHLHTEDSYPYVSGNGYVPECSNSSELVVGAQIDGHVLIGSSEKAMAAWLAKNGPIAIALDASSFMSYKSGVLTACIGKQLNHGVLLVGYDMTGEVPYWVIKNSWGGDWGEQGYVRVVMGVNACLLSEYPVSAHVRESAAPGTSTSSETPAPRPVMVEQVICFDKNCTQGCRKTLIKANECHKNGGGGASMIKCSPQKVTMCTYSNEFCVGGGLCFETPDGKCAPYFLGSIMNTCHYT
Sequence of Cathepsin S (P25774 whole entry): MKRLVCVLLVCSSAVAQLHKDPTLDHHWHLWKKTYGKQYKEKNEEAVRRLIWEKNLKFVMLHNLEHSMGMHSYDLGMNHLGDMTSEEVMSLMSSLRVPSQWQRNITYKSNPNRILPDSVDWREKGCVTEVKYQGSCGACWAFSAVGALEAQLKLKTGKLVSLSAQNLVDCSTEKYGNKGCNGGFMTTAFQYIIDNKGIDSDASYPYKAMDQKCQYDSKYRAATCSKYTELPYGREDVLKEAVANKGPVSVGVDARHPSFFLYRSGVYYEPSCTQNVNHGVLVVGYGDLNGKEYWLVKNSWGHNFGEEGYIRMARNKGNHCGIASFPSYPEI

As for `CC(C)C[C@H](NC(=O)c1ccc(C(C)(C)C)cc1)C(=O)N1NC[C@@H]2[C@H]1C(=O)CN2C(=O)c1ccccc1`, the inhibition constant (Ki) (as a rule, a measure of affinity in units of concentration, obtained from inhibition or displacement) is 49.5 nM on Cysteine proteinase B; 93.2 nM at Cruzipain; 370 nM in assay [1]; 3.5 nM at Cathepsin K; 119 nM in assay [2]; 434 nM on Cathepsin S.

For `CC(C)C[C@H](NC(=O)c1ccc(N(C)C)cc1)C(=O)N1CC[C@@H]2[C@H]1C(=O)CN2C(=O)c1ccccc1`, the Ki at Cysteine proteinase B was 1170 nM; at Cruzipain, 600 nM; in assay [1], 1800 nM; on Cathepsin K, 5.5 nM; in assay [2] it was above 10000 nM; on Cathepsin S, above 3000 nM.

On to `CC(C)C[C@H](NC(=O)c1ccc(C(C)(C)C)cc1)C(=O)N1CC[C@@H]2[C@H]1C(=O)CN2C(=O)c1ccccc1`, for which the Ki was 691 nM at Cysteine proteinase B; 173 nM at Cruzipain; above 3500 nM in assay [1]; 10.1 nM on Cathepsin K; above 10000 nM in assay [2]; above 4500 nM on Cathepsin S.

For `CC(C)C[C@H](NC(=O)c1ccc(N(C)C)cc1)C(=O)N1OC[C@@H]2[C@H]1C(=O)CN2C(=O)c1ccccc1`, the Ki at Cysteine proteinase B was 1000 nM; on Cruzipain, 2500 nM; in assay [1], above 4300 nM; on Cathepsin K it was 40.1 nM; in assay [2], above 6000 nM; on Cathepsin S, above 3000 nM.
